Measured values reported in ChEMBL document CHEMBL5104103 (J Med Chem, 2022).

Legend:
[1] = Toxicity in male Beagle dog assessed as drug tolerance up to 400 mg/kg/day qd for 12 weeks; assay type: organism-based, Canis lupus familiaris; details: in vivo, 2016 h
[2] = Mutagenicity in Salmonella typhimurium by Ames test; assay type: toxicity; details: salmonella enterica subsp. enterica serovar typhimurium
[3] = biological target: Sodium-dependent dopamine transporter (Homo sapiens) (UniProt Q01959); assay: Displacement of [3H]BTCP from recombinant human dopamine transporter DAT at 10 uM incubated for 120 mins by radiometric scintillation assay relative to control
[4] = Clearance in rat liver S9 fraction assessed as measuring per mg protein; assay type: ADME, subcellular; details: read-out: CLH
[5] = biological target: T1, Tyrosine-protein kinase ITK/TSK (Homo sapiens) (UniProt Q08881); assay: Displacement of competitive tracer from ITK (unknown origin) assessed as target occupancy at […] preincubated for 15 mins measured for 6 hrs relative to control; details: dose 1.5 µM
T1 sequence (whole entry): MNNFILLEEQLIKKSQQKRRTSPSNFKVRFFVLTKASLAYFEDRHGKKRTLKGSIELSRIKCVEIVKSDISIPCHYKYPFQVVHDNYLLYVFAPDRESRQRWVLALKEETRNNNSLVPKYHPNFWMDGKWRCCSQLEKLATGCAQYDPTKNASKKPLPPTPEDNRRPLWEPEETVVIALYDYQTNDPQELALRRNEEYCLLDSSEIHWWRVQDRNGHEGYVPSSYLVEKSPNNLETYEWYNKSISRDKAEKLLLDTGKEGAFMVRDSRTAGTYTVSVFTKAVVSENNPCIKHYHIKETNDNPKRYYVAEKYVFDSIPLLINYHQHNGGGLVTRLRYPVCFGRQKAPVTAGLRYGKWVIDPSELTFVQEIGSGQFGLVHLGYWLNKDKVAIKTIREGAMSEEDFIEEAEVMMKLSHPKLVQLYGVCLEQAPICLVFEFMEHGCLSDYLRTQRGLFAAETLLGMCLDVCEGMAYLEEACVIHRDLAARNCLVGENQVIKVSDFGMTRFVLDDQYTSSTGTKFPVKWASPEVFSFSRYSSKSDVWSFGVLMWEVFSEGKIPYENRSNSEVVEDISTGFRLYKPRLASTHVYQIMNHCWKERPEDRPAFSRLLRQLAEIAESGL

[6] = biological target: T1, Tyrosine-protein kinase ITK/TSK (Homo sapiens); assay: Displacement of competitive tracer from ITK (unknown origin) assessed as target occupancy at […] preincubated for 15 mins measured for 1 hr relative to control; details: dose 1.5 µM
Rattus norvegicus = assay: Antiarthritic activity in collagen-induced arthritis Lewis rat model assessed as inhibition of ankle diameter administered orally daily for 10 days; assay type: functional, organism-based; details: dose 3-30 mg/kg/day, route po, time 10.0 day, DDE = dose-dependent effect
[7] = Drug concentration in plasma of collagen-induced arthritis Lewis rat model 10 mg/kg/day, po measured after 12 hrs post-collection of plasma; assay type: ADME, organism-based
[8] = biological target: T2, Tyrosine-protein kinase TXK (Homo sapiens) (UniProt P42681); assay: Displacement of competitive tracer from RLK (unknown origin) assessed as target occupancy at […] preincubated for 15 mins measured for 24 hrs relative to control; details: dose 1.5 µM
T2 sequence (whole entry): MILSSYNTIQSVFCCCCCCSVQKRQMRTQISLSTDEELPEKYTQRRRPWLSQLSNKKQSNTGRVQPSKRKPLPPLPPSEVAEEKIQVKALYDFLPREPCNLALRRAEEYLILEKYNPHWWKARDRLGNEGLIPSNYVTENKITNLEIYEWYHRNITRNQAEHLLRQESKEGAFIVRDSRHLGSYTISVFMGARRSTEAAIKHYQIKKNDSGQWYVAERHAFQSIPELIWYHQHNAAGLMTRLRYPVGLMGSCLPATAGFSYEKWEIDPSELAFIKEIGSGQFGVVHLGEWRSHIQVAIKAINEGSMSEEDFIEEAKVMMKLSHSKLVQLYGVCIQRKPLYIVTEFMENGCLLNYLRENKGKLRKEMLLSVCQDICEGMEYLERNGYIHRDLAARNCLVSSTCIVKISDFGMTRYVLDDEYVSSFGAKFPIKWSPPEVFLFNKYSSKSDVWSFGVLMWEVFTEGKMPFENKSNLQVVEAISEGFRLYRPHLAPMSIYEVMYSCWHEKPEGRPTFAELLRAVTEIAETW

[9] = biological target: D(2) dopamine receptor (Homo sapiens) (UniProt P14416); assay: Displacement of [3H]methyl-spiperone from recombinant human dopamine receptor D2S at 10 uM incubated for 60 mins by radiometric scintillation assay relative to control
[10] = Drug concentration in plasma of collagen-induced arthritis Lewis rat model 3 mg/kg/day, po measured after 6 hrs post-collection of plasma; assay type: ADME, organism-based
[11] = Drug concentration in plasma of collagen-induced arthritis Lewis rat model 10 mg/kg/day, po measured after 6 hrs post-collection of plasma; assay type: ADME, organism-based
[12] = Toxicity in female Beagle dog assessed as reduction in activity up to 400 mg/kg/day qd for 12 weeks; assay type: organism-based, Canis lupus familiaris; details: in vivo, 2016 h
[13] = biological target: T3, Tyrosine-protein kinase Tec (Homo sapiens) (UniProt P42680); assay: Displacement of competitive tracer from TEC (unknown origin) assessed as target occupancy at […] preincubated for 15 mins measured for 1 hr relative to control; details: dose 1.5 µM
T3 sequence (whole entry): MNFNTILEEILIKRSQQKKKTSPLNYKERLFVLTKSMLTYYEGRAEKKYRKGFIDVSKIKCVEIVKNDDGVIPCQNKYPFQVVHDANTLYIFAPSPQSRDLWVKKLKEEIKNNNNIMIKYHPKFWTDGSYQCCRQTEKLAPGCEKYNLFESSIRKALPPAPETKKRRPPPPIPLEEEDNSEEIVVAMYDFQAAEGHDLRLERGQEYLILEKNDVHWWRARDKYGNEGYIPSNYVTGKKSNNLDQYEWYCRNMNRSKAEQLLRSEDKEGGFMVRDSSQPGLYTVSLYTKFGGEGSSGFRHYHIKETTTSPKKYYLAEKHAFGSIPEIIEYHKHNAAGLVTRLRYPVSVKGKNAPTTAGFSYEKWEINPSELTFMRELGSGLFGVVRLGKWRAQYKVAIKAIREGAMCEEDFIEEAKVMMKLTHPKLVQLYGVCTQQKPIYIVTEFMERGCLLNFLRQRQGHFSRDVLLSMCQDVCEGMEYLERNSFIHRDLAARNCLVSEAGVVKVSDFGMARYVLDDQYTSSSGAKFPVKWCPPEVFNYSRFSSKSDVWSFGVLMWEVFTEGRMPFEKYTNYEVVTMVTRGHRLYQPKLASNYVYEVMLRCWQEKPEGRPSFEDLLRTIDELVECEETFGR

[14] = Drug concentration in plasma of collagen-induced arthritis Lewis rat model 3 mg/kg/day, po measured after 12 hrs post-collection of plasma; assay type: ADME, organism-based; details: in vivo, BLD = below limit of detection
[15] = Drug concentration in plasma of collagen-induced arthritis Lewis rat model 30 mg/kg/day, po measured after 12 hrs post-collection of plasma; assay type: ADME, organism-based

Sequence of D(2) dopamine receptor (Homo sapiens) (P14416 whole entry): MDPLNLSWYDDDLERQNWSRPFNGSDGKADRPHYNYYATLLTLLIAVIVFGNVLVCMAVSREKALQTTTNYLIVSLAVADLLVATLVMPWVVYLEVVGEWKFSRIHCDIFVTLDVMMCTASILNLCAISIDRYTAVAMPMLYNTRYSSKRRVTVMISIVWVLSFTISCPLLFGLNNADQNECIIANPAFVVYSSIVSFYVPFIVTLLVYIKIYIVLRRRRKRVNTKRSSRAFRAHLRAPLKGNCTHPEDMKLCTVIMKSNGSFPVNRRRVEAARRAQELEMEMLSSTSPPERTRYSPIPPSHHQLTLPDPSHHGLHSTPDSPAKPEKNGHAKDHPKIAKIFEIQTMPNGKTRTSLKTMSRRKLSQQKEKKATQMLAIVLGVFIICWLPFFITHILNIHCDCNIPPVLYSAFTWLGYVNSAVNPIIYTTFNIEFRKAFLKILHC
Sequence of Sodium-dependent dopamine transporter (Homo sapiens) (Q01959 whole entry): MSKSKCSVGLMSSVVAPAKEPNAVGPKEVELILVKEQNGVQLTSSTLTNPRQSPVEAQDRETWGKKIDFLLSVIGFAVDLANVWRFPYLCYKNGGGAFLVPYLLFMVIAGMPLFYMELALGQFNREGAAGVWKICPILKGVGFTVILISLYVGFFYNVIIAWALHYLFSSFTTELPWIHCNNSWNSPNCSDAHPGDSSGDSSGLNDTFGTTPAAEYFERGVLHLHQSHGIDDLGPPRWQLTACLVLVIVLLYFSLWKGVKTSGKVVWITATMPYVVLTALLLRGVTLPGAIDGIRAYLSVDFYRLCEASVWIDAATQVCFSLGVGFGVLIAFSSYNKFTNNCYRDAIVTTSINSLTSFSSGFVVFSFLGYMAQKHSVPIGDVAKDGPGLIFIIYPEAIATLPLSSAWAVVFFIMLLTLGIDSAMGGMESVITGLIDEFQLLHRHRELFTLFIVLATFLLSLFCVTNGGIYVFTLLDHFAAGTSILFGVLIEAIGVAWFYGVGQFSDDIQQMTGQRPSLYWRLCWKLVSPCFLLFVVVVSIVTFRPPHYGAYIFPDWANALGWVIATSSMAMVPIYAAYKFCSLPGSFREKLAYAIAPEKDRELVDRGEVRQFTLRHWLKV

## CC(C)(C)/C=C(\C#N)C(=O)N1CCC[C@@H](n2nc(-c3ccc(Oc4ccccc4)cc3F)c3c(N)ncnc32)C1 [ATUZABRUTINIB]
[1]
  Activity: Non-Toxic
[2]
  Activity: Non-Toxic
[3]
  inhibition: > 50%
[4]
  microsomal CLint: 54 µL/min/mg
[5]
  Activity: 28%
[6]
  Activity: 82%
Rattus norvegicus
  Activity: Dde
[7]
  concentration at 12 h: 10 ng/mL
[8]
  Activity: 85%
[9]
  inhibition: > 50%
[10]
  concentration at 6 h: 5.2 ng/mL
[11]
  concentration at 6 h: 40.2 ng/mL
[12]
  Activity: Toxic
[13]
  Activity: 87%
[14]
  Cp: Bld
[15]
  concentration at 12 h: 51.8 ng/mL
